≈ marks a conversion by molar mass, not a printed value. A value given as a limit tells only on which side of the number the result lay.

A short description of series [1]: Selectivity index, ratio of CC50 for African green monkey Vero cells to MIC for Mycobacterium tuberculosis H37Rv. The format is toxicity. As to conditions: read-out: Selectivity Index.
Series [2] concerns Mycobacterium tuberculosis. Briefly: Antitubercular activity against Mycobacterium tuberculosis H37Rv. The format is functional.
Series [3] is described as follows: Cytotoxicity against African green monkey Vero cells assessed as reduction in cell viability after 72 hrs by MTT assay. The class given is cell-based. As to conditions: chlorocebus sabaeus, Vero cells.
Series [4] has as its system Escherichia coli. Briefly: Antibacterial activity against Escherichia coli. The format is functional.
The test system of series [5] is Enterobacter cloacae. Briefly: Antibacterial activity against Enterobacter cloacae. The format is functional.
In series [6] the test system is Citrobacter freundii. Briefly: Antibacterial activity against Citrobacter freundii. The class given is functional.
Series [7] relates to Proteus mirabilis. The series is described as follows: Antibacterial activity against Proteus mirabilis. The class given is functional.
Series [8] has as its system Staphylococcus aureus. The series is described as follows: Antibacterial activity against methicillin-resistant Staphylococcus aureus. The format is functional.
Series [9] relates to Klebsiella aerogenes. Briefly: Antibacterial activity against Enterobacter aerogenes. The format is functional.
Series [10] has as its system Staphylococcus aureus. The series is described as follows: Antibacterial activity against methicillin-sensitive Staphylococcus aureus. The format is functional.
The test system of series [11] is Klebsiella pneumoniae. The series is described as follows: Antibacterial activity against Klebsiella pneumoniae. The class given is functional.
Series [12] concerns Pseudomonas aeruginosa. The series is described as follows: Antibacterial activity against Pseudomonas aeruginosa ATCC 27853. The class given is functional.
Series [13] deals with Acinetobacter calcoaceticus. Briefly: Antibacterial activity against Acinetobacter calcoaceticus. The format is functional.
Series [14] has as its system Staphylococcus epidermidis. The series is described as follows: Antibacterial activity against methicillin-sensitive Staphylococcus epidermidis. The format is functional.
The test system of series [15] is Enterococcus faecium. Briefly: Antibacterial activity against Enterococcus faecium. The class given is functional.
The test system of series [16] is Enterococcus faecalis. Briefly: Antibacterial activity against Enterococcus faecalis. The class given is functional.
In series [17] the test system is Staphylococcus epidermidis. Briefly: Antibacterial activity against methicillin-resistant Staphylococcus epidermidis. The class given is functional.

On to `CO[C@H]1/C=C/O[C@@]2(C)Oc3c(C)c(O)c4c(O)c(c(/C=N/N5CCN(C)CC5)c(O)c4c3C2=O)NC(=O)/C(C)=C\C=C\[C@H](C)[C@H](O)[C@@H](C)[C@@H](O)[C@@H](C)[C@H](OC(C)=O)[C@@H]1C` [RIFAMPIN], for which the selectivity ratio in series [1] stood at 6560. The compound further had an MIC in series [2] of 0.078 µg/mL (≈ 0.0948 µM).

Regarding `CCOC(=O)c1c(-c2ccc(OC)cc2)oc2ccc(OCCCCCN3C(=O)/C(=N\OC)c4ccccc43)cc12`, the CC50 at 72 h in series [3] came to 32 µg/mL (≈ 57.5 µM). Further, the MIC90 in series [4] turned out to be 0.25 µg/mL (≈ 0.449 µM); in series [5], 0.25 µg/mL (≈ 0.449 µM); in [6], 1 µg/mL (≈ 1.8 µM); in series [7], 0.5 µg/mL (≈ 0.898 µM); in series [8], 4 µg/mL (≈ 7.19 µM); in series [9], 1 µg/mL (≈ 1.8 µM). The MIC90 in [10] is 2 µg/mL (≈ 3.59 µM); in series [11], 2 µg/mL (≈ 3.59 µM); in [12] it was 1 µg/mL (≈ 1.8 µM); in [13] it was 1 µg/mL (≈ 1.8 µM); in series [14], 0.5 µg/mL (≈ 0.898 µM); in series [15], 32 µg/mL (≈ 57.5 µM). The MIC90 in [16] and in series [17] was 4 µg/mL (≈ 7.19 µM) throughout. Further, the selectivity ratio in series [1] was 1030. In series [2], this compound yielded a minimal inhibitory concentration (MIC) of 0.049 µg/mL (≈ 0.088 µM).

Turning to `CCOC(=O)c1c(-c2ccccc2)oc2ccc(OCCCN3C(=O)/C(=N\OC)c4ccccc43)cc12`, the CC50 at 72 h in [3] stood at 64 µg/mL (≈ 128 µM). Moreover, the MIC90 in series [4] is 0.25 µg/mL (≈ 0.501 µM); in [5], 2 µg/mL (≈ 4.01 µM); in series [6] it was 0.5 µg/mL (≈ 1 µM); in [7], 0.5 µg/mL (≈ 1 µM); in [8] it was 2 µg/mL (≈ 4.01 µM); in series [9], 0.25 µg/mL (≈ 0.501 µM). Also, the MIC90 is 8 µg/mL (≈ 16 µM) in series [10]; 0.5 µg/mL (≈ 1 µM) in [11]; 1 µg/mL (≈ 2.01 µM) in [12]; 1 µg/mL (≈ 2.01 µM) in series [13]; 0.125 µg/mL (≈ 0.251 µM) in series [14]; 8 µg/mL (≈ 16 µM) in [15]. The MIC90 stood at 1 µg/mL (≈ 2.01 µM) in [16] and 0.5 µg/mL (≈ 1 µM) in [17]. The selectivity ratio in series [1] was greater than 2000. The minimal inhibitory concentration (MIC) in series [2] is less than 0.016 µg/mL.

Take `CCOC(=O)c1c(-c2ccc(F)cc2)oc2ccc(OCCCCCCN3C(=O)C(=O)c4cc(F)ccc43)cc12`: the CC50 at 72 h in series [3] is 512 µg/mL (≈ 935 µM). Moreover, the MIC90 came to 0.25 µg/mL (≈ 0.457 µM) in [4]; 0.5 µg/mL (≈ 0.913 µM) in series [5]; 0.06 µg/mL (≈ 0.11 µM) in [6]; 0.06 µg/mL (≈ 0.11 µM) in series [7]; 2 µg/mL (≈ 3.65 µM) in [8]; 0.125 µg/mL (≈ 0.228 µM) in series [9]. Besides, the MIC90 in series [10] was 1 µg/mL (≈ 1.83 µM); in [11] it was 1 µg/mL (≈ 1.83 µM); in [12] it was 2 µg/mL (≈ 3.65 µM); in series [13], 4 µg/mL (≈ 7.31 µM); in series [14] it was 1 µg/mL (≈ 1.83 µM); in series [15], 16 µg/mL (≈ 29.2 µM). In addition, the MIC90 in series [16] worked out at 2 µg/mL (≈ 3.65 µM); in series [17] it was 4 µg/mL (≈ 7.31 µM). Besides, in series [1], the selectivity ratio is greater than 32000. For the same compound, the minimum inhibitory concentration (MIC) in series [2] is less than 0.016 µg/mL.

As for `CCOC(=O)c1c(-c2ccc(OC)cc2)oc2ccc(OCCCCCCN3C(=O)/C(=N\NC(N)=S)c4cc(F)ccc43)cc12`, the cytotoxic concentration (CC50) at 72 h in series [3] worked out at 8 µg/mL (≈ 12.6 µM). Besides, the MIC90 in [4] stood at 0.125 µg/mL (≈ 0.198 µM); in series [5], 0.5 µg/mL (≈ 0.79 µM); in series [6], 0.25 µg/mL (≈ 0.395 µM); in series [7], 1 µg/mL (≈ 1.58 µM); in series [8], 1 µg/mL (≈ 1.58 µM); in series [9] it was 2 µg/mL (≈ 3.16 µM). For the same compound, the MIC90 in series [10] is 1 µg/mL (≈ 1.58 µM); in series [11], 1 µg/mL (≈ 1.58 µM); in [12] it was 4 µg/mL (≈ 6.32 µM); in [13], 16 µg/mL (≈ 25.3 µM); in series [14], 0.5 µg/mL (≈ 0.79 µM); in [15], 32 µg/mL (≈ 50.6 µM). The MIC90 was found to be 1 µg/mL (≈ 1.58 µM) in [16] and 2 µg/mL (≈ 3.16 µM) in series [17]. Further, the selectivity ratio in series [1] is greater than 500. Also, in [2], the minimum inhibitory concentration (MIC) was less than 0.016 µg/mL.

Regarding `CCOC(=O)c1c(-c2ccc(OC)cc2)oc2ccc(OCCCN3C(=O)/C(=N\OC)c4cc(OC)ccc43)cc12`, the CC50 at 72 h in series [3] was 128 µg/mL (≈ 229 µM). Besides, the MIC90 in [4] is 0.25 µg/mL (≈ 0.448 µM); in series [5], 0.25 µg/mL (≈ 0.448 µM); in series [6], 0.5 µg/mL (≈ 0.895 µM); in [7], 0.25 µg/mL (≈ 0.448 µM); in series [8], 2 µg/mL (≈ 3.58 µM); in [9], 0.125 µg/mL (≈ 0.224 µM). Moreover, the MIC90 in series [10] is 4 µg/mL (≈ 7.16 µM); in [11], 1 µg/mL (≈ 1.79 µM); in series [12], 1 µg/mL (≈ 1.79 µM); in series [13], 4 µg/mL (≈ 7.16 µM); in series [14], 0.25 µg/mL (≈ 0.448 µM); in [15], 8 µg/mL (≈ 14.3 µM). For the same compound, the results for the MIC90 in [16] and in series [17] were 1 µg/mL (≈ 1.79 µM) and 2 µg/mL (≈ 3.58 µM), respectively. For the same compound, the selectivity ratio in series [1] was greater than 8000. This compound also showed an MIC in series [2] of less than 0.016 µg/mL.

Consider `CN[C@H](CC(C)C)C(=O)N[C@H]1C(=O)N[C@@H](CC(N)=O)C(=O)N[C@H]2C(=O)N[C@H]3C(=O)N[C@H](C(=O)N[C@H](C(=O)O)c4cc(O)cc(O)c4-c4cc3ccc4O)[C@H](O)c3ccc(c(Cl)c3)Oc3cc2cc(c3O[C@@H]2O[C@H](CO)[C@@H](O)[C@H](O)[C@H]2O[C@H]2C[C@](C)(N)[C@H](O)[C@H](C)O2)Oc2ccc(cc2Cl)[C@H]1O` [VANCOMYCIN], for which the MIC90 in series [8] is 1 µg/mL (≈ 0.69 µM); in series [10], 0.5 µg/mL (≈ 0.345 µM); in series [14], 1 µg/mL (≈ 0.69 µM); in series [15], 1 µg/mL (≈ 0.69 µM); in series [16], 4 µg/mL (≈ 2.76 µM); in series [17], 1 µg/mL (≈ 0.69 µM).

As a reminder, the MIC is the least concentration at which growth counts as inhibited. The CC50 is the concentration that lowers cell viability or growth by half. As usually defined, the MIC90 is an inhibitory concentration at the 90% level, which refers to growth in some studies and to a panel of isolates in others.

(Values after ChEMBL document CHEMBL4400520, “Benzofuran-isatin-imine hybrids tethered via different length alkyl linkers: Design, synthesis and in vitro evaluation of anti-tubercular and anti-bacterial activities as well as cytotoxicity” (Eur J Med Chem, 2019).)
